The source made the active and inactive calls. No cut-off for these calls is given here.
Tests used:
[1] = Stability in human liver microsomes; format: ADME, Microsome
Mus musculus [2] = assay: Anti-inflammatory activity in C57BL/6 mouse model of inflammatory bowel disease assessed as suppression of DSS-induced NF-kappa-B p65 expression in colon tissue at 5 to 20 mg/kg, po measured after 10 days by western blot analysis; format: functional, organism-based; conditions: dose 5-20 mg/kg, time 10.0 day
[3] = Acute toxicity in 12 hr fasted ICR mouse assessed as effect on lung at 2000 mg/kg, po measured after 7 days by hematoxylin and eosin staining based histopathological analysis; format: organism-based; conditions: in vivo, 168 h, time 7 day
Mus musculus [4] = assay: Anti-inflammatory activity in C57BL/6 mouse model of inflammatory bowel disease assessed as reduction in DSS-induced cellular infiltration in colon tissue at 5 to 20 mg/kg, po daily measured after 10 days by hematoxylin and eosin staining based histopathological analysis; format: functional, organism-based; conditions: dose 5-20 mg/kg, time 10.0 day
[5] = Half life in Sprague-Dawley rat at 10 mg/kg, po measured for 3 to 1440 mins by HPLC analysis; format: ADME, organism-based; conditions: in vivo, time 3-1440 min
BMDC [6] = assay: Inhibition of ERK phosphorylation in R848-stimulated mouse BMDC cells at 1 to 4 uM treated for 2 hrs followed by R848 stimulation for 12 hrs by western blot analysis; format: cell-based; conditions: dose 1-4 µM, time 14.0 hrs
[7] = Acute toxicity in 12 hr fasted ICR mouse assessed as body weight loss at 2000 mg/kg, po measured daily for 7 days; format: organism-based; conditions: in vivo, 168 h, time 7 day
[8] = Acute toxicity in 12 hr fasted ICR mouse assessed as effect on liver at 2000 mg/kg, po measured after 7 days by hematoxylin and eosin staining based histopathological analysis; format: organism-based; conditions: in vivo, 168 h, time 7 day
[9] = biological target: T1, Toll-like receptor 7 (Mus musculus) (UniProt P58681); assay: Inhibition of TLR7 expression in R848-stimulated mouse BMDC cells at 1 to 4 uM treated for 2 hrs followed by R848 stimulation for 12 hrs by western blot analysis; format: cell-based; conditions: dose 1-4 µM, time 14.0 hrs, DDE = dose-dependent effect
T1 sequence (whole entry): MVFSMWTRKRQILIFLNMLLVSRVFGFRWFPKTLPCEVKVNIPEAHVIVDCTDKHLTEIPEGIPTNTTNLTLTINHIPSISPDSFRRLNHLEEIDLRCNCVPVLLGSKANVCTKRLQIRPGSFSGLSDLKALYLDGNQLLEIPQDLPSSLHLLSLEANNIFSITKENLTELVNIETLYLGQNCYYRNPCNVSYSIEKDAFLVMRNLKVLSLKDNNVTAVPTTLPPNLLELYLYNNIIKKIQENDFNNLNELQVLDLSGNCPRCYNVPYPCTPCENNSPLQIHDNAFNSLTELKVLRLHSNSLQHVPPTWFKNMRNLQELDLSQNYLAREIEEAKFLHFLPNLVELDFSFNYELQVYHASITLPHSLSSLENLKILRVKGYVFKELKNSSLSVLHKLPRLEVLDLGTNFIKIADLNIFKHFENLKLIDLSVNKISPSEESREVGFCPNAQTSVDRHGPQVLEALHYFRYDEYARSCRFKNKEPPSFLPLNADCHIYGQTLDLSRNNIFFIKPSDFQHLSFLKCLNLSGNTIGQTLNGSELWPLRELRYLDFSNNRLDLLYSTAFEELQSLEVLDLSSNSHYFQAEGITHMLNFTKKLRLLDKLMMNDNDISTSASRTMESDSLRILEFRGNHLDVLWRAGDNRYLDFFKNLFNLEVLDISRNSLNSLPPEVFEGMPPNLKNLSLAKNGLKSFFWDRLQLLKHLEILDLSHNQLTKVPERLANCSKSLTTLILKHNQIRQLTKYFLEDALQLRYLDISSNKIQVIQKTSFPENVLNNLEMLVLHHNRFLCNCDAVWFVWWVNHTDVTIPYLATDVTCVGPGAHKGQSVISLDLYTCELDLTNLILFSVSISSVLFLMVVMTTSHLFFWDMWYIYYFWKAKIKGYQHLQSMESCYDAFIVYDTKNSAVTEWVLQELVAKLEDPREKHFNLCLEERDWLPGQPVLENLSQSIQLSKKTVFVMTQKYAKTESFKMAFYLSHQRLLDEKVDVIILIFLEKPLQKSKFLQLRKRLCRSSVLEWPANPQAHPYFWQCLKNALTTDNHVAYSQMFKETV

Mus musculus [10] = assay: Anti-inflammatory activity in C57BL/6 mouse model of inflammatory bowel disease assessed as decrease in DSS-induced JNK phosphorylation in colon tissue at 5 to 20 mg/kg, po measured after 10 days by western blot analysis; format: functional, organism-based; conditions: dose 5-20 mg/kg, time 10.0 day, DDE = dose-dependent effect
[11] = biological target: Myeloid differentiation primary response protein MyD88 (Mus musculus) (UniProt P22366); assay: Inhibition of MyD88 expression in R848-stimulated mouse BMDC cells at 1 to 4 uM treated for 2 hrs followed by R848 stimulation for 12 hrs by western blot analysis; format: cell-based; conditions: dose 1-4 µM, time 14.0 hrs, DDE = dose-dependent effect
Chain of Myeloid differentiation primary response protein MyD88 (Mus musculus) (P22366 whole entry): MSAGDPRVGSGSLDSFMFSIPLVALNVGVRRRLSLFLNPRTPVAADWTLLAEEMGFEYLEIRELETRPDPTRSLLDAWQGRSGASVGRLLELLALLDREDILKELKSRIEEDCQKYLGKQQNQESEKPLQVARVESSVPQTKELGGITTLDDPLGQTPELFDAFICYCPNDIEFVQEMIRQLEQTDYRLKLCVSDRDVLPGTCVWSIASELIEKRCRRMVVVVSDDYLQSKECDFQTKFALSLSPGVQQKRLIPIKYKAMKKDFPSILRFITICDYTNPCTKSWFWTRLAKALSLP

Mus musculus [12] = assay: Anti-inflammatory activity in C57BL/6 mouse model of inflammatory bowel disease assessed as increase in DSS-induced IL-10 levels in colon tissue administered orally daily measured after 10 days by ELISA method; format: functional, organism-based; conditions: dose 5-20 mg/kg, route po, time 10.0 day
[13] = biological target: Cyclin-dependent kinase 8 (Homo sapiens) (UniProt P49336); assay: Binding affinity to CDK8 in human HCT-116 cells assessed as thermal stability at 49 degC treated for 4 hrs followed by compound washout by CETSA assay; format: cell-based; conditions: dose 0.5-10 µM, DDE = dose-dependent effect
Chain of Cyclin-dependent kinase 8 (Homo sapiens) (P49336 whole entry): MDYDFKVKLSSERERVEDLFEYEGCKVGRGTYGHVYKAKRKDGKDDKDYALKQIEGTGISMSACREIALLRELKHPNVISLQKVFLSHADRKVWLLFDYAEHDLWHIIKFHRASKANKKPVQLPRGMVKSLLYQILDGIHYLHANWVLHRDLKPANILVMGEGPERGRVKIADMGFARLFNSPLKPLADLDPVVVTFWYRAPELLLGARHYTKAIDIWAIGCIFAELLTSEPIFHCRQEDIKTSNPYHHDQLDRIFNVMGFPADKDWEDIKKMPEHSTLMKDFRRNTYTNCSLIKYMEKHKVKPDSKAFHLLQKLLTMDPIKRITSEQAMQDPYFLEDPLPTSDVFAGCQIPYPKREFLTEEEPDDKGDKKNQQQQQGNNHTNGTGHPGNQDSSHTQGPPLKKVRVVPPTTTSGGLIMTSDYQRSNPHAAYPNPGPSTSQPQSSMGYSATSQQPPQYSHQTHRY

Mus musculus [14] = assay: Anti-inflammatory activity in C57BL/6 mouse model of inflammatory bowel disease assessed as reduction in DSS-induced crypt loss in colon tissue at 5 to 20 mg/kg, po daily measured after 10 days by hematoxylin and eosin staining based histopathological analysis; format: functional, organism-based; conditions: dose 5-20 mg/kg, time 10.0 day
[15] = Acute toxicity in 12 hr fasted ICR mouse assessed as effect on heart at 2000 mg/kg, po measured after 7 days by hematoxylin and eosin staining based histopathological analysis; format: organism-based; conditions: in vivo, 168 h, time 7 day
BMDC [16] = assay: Inhibition of NF-kappa-B phosphorylation in R848-stimulated mouse BMDC cells at 1 to 4 uM treated for 2 hrs followed by R848 stimulation for 12 hrs by western blot analysis; format: cell-based; conditions: dose 1-4 µM, time 14.0 hrs
Mus musculus [17] = assay: Anti-inflammatory activity in C57BL/6 mouse model of inflammatory bowel disease assessed as decrease in DSS-induced TNF-alpha levels in serum at 5 to 20 mg/kg, po daily measured after 10 days by ELISA method; format: functional, organism-based; conditions: dose 5-20 mg/kg, time 10.0 day
[18] = biological target: c-Jun N-terminal kinase (Mus musculus) (UniProt Q91Y86+Q9WTU6+Q61831); assay: Inhibition of JNK phosphorylation in R848-stimulated mouse BMDC cells at 1 to 4 uM treated for 2 hrs followed by R848 stimulation for 12 hrs by western blot analysis; format: cell-based; conditions: dose 1-4 µM, time 14.0 hrs
Chain of c-Jun N-terminal kinase (Mus musculus) (Q61831 whole entry, looked up): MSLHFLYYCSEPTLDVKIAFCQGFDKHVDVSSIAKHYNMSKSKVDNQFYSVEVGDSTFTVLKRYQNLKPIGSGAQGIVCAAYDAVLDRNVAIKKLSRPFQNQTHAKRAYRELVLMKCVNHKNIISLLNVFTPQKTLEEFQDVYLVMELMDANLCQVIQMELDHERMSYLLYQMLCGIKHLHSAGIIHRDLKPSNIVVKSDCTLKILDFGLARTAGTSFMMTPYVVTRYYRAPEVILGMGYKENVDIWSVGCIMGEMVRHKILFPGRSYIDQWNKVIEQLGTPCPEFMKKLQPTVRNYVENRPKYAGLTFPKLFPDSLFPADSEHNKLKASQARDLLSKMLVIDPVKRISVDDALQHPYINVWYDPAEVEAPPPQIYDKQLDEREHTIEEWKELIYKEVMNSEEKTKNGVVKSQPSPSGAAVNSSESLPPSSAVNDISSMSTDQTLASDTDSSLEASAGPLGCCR
Chain of c-Jun N-terminal kinase (Mus musculus) (Q91Y86 whole entry, looked up): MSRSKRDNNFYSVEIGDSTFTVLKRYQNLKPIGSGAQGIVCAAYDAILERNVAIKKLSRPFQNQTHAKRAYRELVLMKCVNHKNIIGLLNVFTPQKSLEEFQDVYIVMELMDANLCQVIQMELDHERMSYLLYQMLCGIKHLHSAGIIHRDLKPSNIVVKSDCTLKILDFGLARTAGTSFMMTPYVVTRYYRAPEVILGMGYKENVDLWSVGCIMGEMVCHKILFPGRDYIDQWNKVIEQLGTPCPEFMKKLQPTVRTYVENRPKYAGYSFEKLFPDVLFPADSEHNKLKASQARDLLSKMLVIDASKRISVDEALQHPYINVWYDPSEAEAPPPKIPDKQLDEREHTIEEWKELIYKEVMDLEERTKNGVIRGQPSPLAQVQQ
Chain of c-Jun N-terminal kinase (Mus musculus) (Q9WTU6 whole entry, looked up): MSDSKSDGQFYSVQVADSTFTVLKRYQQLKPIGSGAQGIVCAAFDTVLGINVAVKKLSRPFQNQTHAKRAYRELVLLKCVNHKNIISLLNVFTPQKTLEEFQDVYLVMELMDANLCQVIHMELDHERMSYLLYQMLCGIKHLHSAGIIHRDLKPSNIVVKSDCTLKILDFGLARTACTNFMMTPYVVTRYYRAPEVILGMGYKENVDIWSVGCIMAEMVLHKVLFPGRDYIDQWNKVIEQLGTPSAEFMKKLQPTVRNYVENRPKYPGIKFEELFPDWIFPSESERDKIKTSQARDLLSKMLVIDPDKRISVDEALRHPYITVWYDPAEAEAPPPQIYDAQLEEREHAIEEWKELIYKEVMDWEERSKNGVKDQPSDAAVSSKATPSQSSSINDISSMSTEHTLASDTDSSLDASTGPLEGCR

Mus musculus [19] = assay: Anti-inflammatory activity in C57BL/6 mouse model of inflammatory bowel disease assessed as increase in DSS-induced IL-10 levels in serum administered orally daily measured after 10 days by ELISA method; format: functional, organism-based; conditions: dose 5-20 mg/kg, route po, time 10.0 day, DDE = dose-dependent effect
[20] = Acute toxicity in 12 hr fasted ICR mouse assessed as effect on kidney at 2000 mg/kg, po measured after 7 days by hematoxylin and eosin staining based histopathological analysis; format: organism-based; conditions: in vivo, 168 h, time 7 day

Which Stability [1] does the source give for `CCc1ccccc1NC(=O)c1cncc(-c2ccc(C(=O)N3CCNCC3)cc2)c1` here?
Its Stability is “Stable”.

And the Activity (Mus musculus [2])?
The Activity was “Active”.

What about the Activity [3] of the same molecule?
Its Activity is “Non-Toxic”.

What about the Activity (Mus musculus [4]) of the same molecule?
Its Activity is “Active”.

And the half-life [5]?
The half-life was 131 min.

And the inhibition (BMDC [6])?
Its inhibition is “Active”.

What about the Activity [7] of the same molecule?
The Activity was “Non-Toxic”.

And the Activity [8]?
The Activity was “Non-Toxic”.

What about the inhibition [9] of the same molecule?
The inhibition was “Dde”.

What about the Activity (Mus musculus [10]) of the same molecule?
The Activity was “Dde”.

And the inhibition [11]?
Its inhibition is “Dde”.

And the Activity (Mus musculus [12])?
Its Activity is “Active”.

And the Activity [13]?
Its Activity is “Dde”.

What about the Activity (Mus musculus [14]) of the same molecule?
The Activity was “Active”.

What about the Activity [15] of the same molecule?
Its Activity is “Non-Toxic”.

What about the inhibition (BMDC [16]) of the same molecule?
The inhibition was “Active”.

What about the Activity (Mus musculus [17]) of the same molecule?
Its Activity is “Active”.

And the inhibition [18]?
Its inhibition is “Active”.

And the Activity (Mus musculus [19])?
The Activity was “Dde”.

And the Activity [20]?
The Activity was “Non-Toxic”.

Reference: ChEMBL document CHEMBL5154907, “Discovery and Anti-Inflammatory Activity Evaluation of a Novel CDK8 Inhibitor through Upregulation of IL-10 for the Treatment of Inflammatory Bowel Disease In Vivo” (J Med Chem, 2022)
